The values that follow are results of earlier work, collected in patent US20240269237A1, “PHARMACEUTICAL COMPOSITION AND KIT COMPRISING AN IMMUNOMODULATORY SUBSTANCE FOR TREATING DISEASES” (ellennbe GmbH, priority 2021, published 2024).

For data set [1], the system named is ankylosing spondylitis (Bechterew's disease). The note with it: for effect of earlier treatment with biologics: Patient 11, history, within half a year the biologics lost their effect; for tolerability of earlier TNF-α inhibitors: human, in vivo.
Data set [2] concerns rheumatoid arthritis. Conditions: for adverse effects of earlier treatment: Patient 7, history, regimen of MTX and upadacitinib tried a second time.
The subject of data set [3] is perfusion of the skin. The note with it: healthy subjects.

As for golimumab [Simponi®], the “effect of earlier treatment with biologics” value in data set [1] is recorded as “little effect from the outset”. Take `CN(Cc1cnc2nc(N)nc(N)c2n1)c1ccc(C(=O)N[C@@H](CCC(=O)O)C(=O)O)cc1` [MTX, methotrexate]: the “adverse effects of earlier treatment” value in data set [2] was “severe adverse effects (tendency to fibrosis in the lungs and sinusitis)”.

Regarding etanercept [Enbrel®], the “tolerability of earlier TNF-α inhibitors” value in data set [1] is reported as “strong adverse side effects”. Regarding Remicade®: TNF-α inhibitor, the “tolerability of earlier TNF-α inhibitors” value in data set [1] is recorded as “strong adverse side effects”. In the case of `CC[C@@H]1CN(C(=O)NCC(F)(F)F)C[C@@H]1c1cnc2cnc3[nH]ccc3n12` [upadacitinib], the “adverse effects of earlier treatment” value in data set [2] was “severe adverse effects (tendency to fibrosis in the lungs and sinusitis)”.

On to adalinumab [Humira®], for which, in data set [1], the “effect of earlier treatment with biologics” value is recorded as “little effect from the outset”.

Turning to `COC(=O)c1cccnc1` [MN, methyl nicotinate], in data set [3] (50 μl of 20 mmol/l topically), the perfusion response entry is “reproducible perfusion response”. The “time course of perfusion increase” value in data set [3] (topical application) is “reaches a stable plateau phase after five minutes”. With Symponi®: TNF-α inhibitor, the “tolerability of earlier TNF-α inhibitors” value in data set [1] is given as “strong adverse side effects”. In the case of tocilizumab, in data set [2] (Patient 7, 162 mg per week), the “efficacy of basic treatment” value is recorded as “only partially efficient”.
